Source: ChEMBL document CHEMBL5528065, “Structure-Activity Relationship of a Pyrrole Based Series of PfPKG Inhibitors as Anti-Malarials” (J Med Chem, 2024)

Columns and labels:
Homo sapiens = species on record: Homo sapiens; test: Inhibition of human PKG using FAM-IP3R peptide as fluorescent substrate at 10 uM preincubated for 15 mins followed by substrate addition measured after 1 hr by fluorescence polarization based IMAP assay relative to control; conditions: time 75.0 min
Plasmodium falciparum [1] = test: Antimalarial activity against drug-sensitive Plasmodium falciparum 3D7 infected in human erythrocytes assessed as reduction in parasitemia incubated for 72 hrs by SYBR green I and Mitotracker deep red dye based flow cytometric analysis; format: functional, organism-based
Plasmodium berghei = test: Antimalarial activity against Plasmodium berghei sporozoites expressing Luciferase infected in human HepG2 cells assessed as reduction in parasite growth incubated for 48 hrs by ONE-Glo luciferase assay; format: functional, organism-based
[2] = Inhibition of recombinant Plasmodium falciparum PKG using FAM-PKA peptide as fluorescent substrate preincubated for 15 mins followed by substrate addition measured after 1 hr by fluorescence polarization based IMAP assay
Plasmodium falciparum [3] = test: Antimalarial activity against Plasmodium falciparum expressing PKG T618Q mutant infected in human erythrocytes assessed as reduction in parasitemia incubated for 72 hrs by SYBR green I and Mitotracker deep red dye based flow cytometric analysis; format: functional, organism-based; conditions: Plasmodium falciparum, 72 h
[4] = Plasmodium falciparum, 3D7, 72 h
[5] = Plasmodium berghei, HepG2, 48 h

SMILES | inhibition (Homo sapiens) [%] | EC50 (Plasmodium falciparum [1]; [4]) [nM] | EC50 (Plasmodium berghei; [5]) [nM] | IC50 [2] [nM] | pIC50 [2] | EC50 (Plasmodium falciparum [3]) [nM] | EC50 (Plasmodium falciparum [1]) [nM] | EC50 (Plasmodium berghei) [nM]
CN1CCC(c2cc(-c3ccncc3)c(-c3ccc(C(F)(F)F)cc3)[nH]2)CC1.Cl.Cl | -2 | 530 | 2600 | 329 | 6.94 | 800 | – | –
CN1CCC(c2cc(-c3ccncc3F)c(-c3ccc(F)cc3)[nH]2)CC1.Cl.Cl | 18 | 300 | 780 | 49 | 7.72 | 5220 | – | –
CN1CCC(c2cc(-c3ccncc3C#N)c(-c3ccc(F)cc3)[nH]2)CC1.Cl.Cl | 2 | 360 | 340 | 35 | 7.46 | 4400 | – | –
CCOC(=O)c1c(C2CCN(C)CC2)[nH]c(-c2ccc(F)cc2)c1-c1ccncc1.Cl.Cl | 0 | 2470 | 2600 | 1030 | 5.99 | 1630 | – | –
COc1ccc(-c2[nH]c(C3CCN(C)CC3)cc2-c2ccncc2)cc1.Cl.Cl | 6 | 230 | 240 | 30 | 7.2 | 1090 | – | –
C[C@@H]1C[C@H](c2cc(-c3ccncc3)c(-c3ccc(F)cc3)[nH]2)CCN1C.Cl.Cl (racemic) | 10 | 360 | 670 | 41 | 6.97 | 900 | – | –
CN(C)Cc1c(C2CCN(C)CC2)[nH]c(-c2ccc(F)cc2)c1-c1ccncc1.Cl.Cl.Cl | 8 | – | – | 3760 | 5.43 | – | – | –
CN1CCC(c2cc(-c3ccnc(C(N)=O)c3)c(-c3ccc(F)cc3)[nH]2)CC1.Cl.Cl | 14 | 3920 | – | 1810 | 5.74 | > 10000 | – | –
CN1CCC(c2cc(-c3ccn4nnnc4c3)c(-c3ccc(F)cc3)[nH]2)CC1.Cl.Cl | 12 | 2750 | > 20000 | 11600 | 4.94 | 2270 | – | –
CN1CCC(c2[nH]c(-c3ccc(F)cc3)c(-c3ccncc3)c2C#N)CC1.Cl.Cl | 19 | 900 | 540 | 11 | 7.96 | 2450 | – | –
CC(=O)O.CN1CCC(c2cc(-c3ccnc(C#N)c3)c(-c3ccc(F)cc3)[nH]2)CC1 | 9 | 420 | 2800 | 95 | 7.02 | 3730 | – | –
CN1CCC(c2cc(-c3ccnc(N)c3)c(-c3ccc(F)cc3)[nH]2)CC1.Cl.Cl | -4 | 50 | 590 | 352 | 6.45 | 600 | – | –
Cc1cc(-c2cc(C3CCN(C)CC3)[nH]c2-c2ccc(F)cc2)ccn1.Cl.Cl | 9 | 2330 | 3700 | 2550 | 5.59 | 960 | – | –
CN1C[C@@H]2C(c3cc(-c4ccncc4)c(-c4ccc(F)cc4)[nH]3)[C@@H]2C1.Cl.Cl (stereo not given in full) | 6 | 640 | 670 | 207 | 6.59 | 900 | – | –
CN1CCC(c2cc(-c3ccncc3)c(-c3ccsc3)[nH]2)CC1.Cl.Cl | 7 | 1020 | 2400 | 176 | 6.89 | 1740 | – | –
CC(=O)O.CN1CCC(c2[nH]c(-c3ccc(F)cc3)c(-c3ccncc3)c2CO)CC1 | 11 | 4610 | – | 226 | 6.65 | 4190 | – | –
CN1CCC(c2cc(-c3ccnc(Br)c3)c(-c3ccc(F)cc3)[nH]2)CC1.Cl.Cl | 36 | 1720 | – | 169 | 6.77 | 1930 | – | –
CN1CCC(c2[nH]c(-c3ccc(F)cc3)c(-c3ccncc3)c2C(N)=O)CC1.Cl.Cl | 14 | > 20000 | – | 4840 | 5.31 | – | – | –

SMILES | inhibition (Homo sapiens) [%] | EC50 (Plasmodium falciparum [1]; [4]) [nM] | EC50 (Plasmodium berghei; [5]) [nM] | IC50 [2] [nM] | pIC50 [2] | EC50 (Plasmodium falciparum [3]) [nM] | EC50 (Plasmodium falciparum [1]) [nM] | EC50 (Plasmodium berghei) [nM]
CN1CCC(c2[nH]c(-c3ccc(F)cc3)c(-c3ccncc3)c2Br)CC1.Cl.Cl | 12 | 1550 | – | 107 | 6.97 | 1140 | – | –
CCc1c(C2CCN(C)CC2)[nH]c(-c2ccc(F)cc2)c1-c1ccncc1.Cl.Cl | 12 | – | – | 1610 | 5.79 | – | – | –
CN1CCC(c2cc(-c3ccncc3Cl)c(-c3ccc(F)cc3)[nH]2)CC1.Cl.Cl | 12 | 460 | 1440 | 152 | 7.47 | 3950 | – | –
CN1CCC(c2cc(-c3ccncc3Br)c(-c3ccc(F)cc3)[nH]2)CC1.Cl.Cl | 13 | 330 | 340 | 35 | 7.46 | 1670 | – | –
C[C@H]1C[C@H](c2cc(-c3ccncc3)c(-c3ccc(F)cc3)[nH]2)CCN1C.Cl.Cl (racemic) | 7 | 380 | 560 | 51 | 7.1 | 950 | – | –
CN1CCC(c2cc(-c3ccncc3C(N)=O)c(-c3ccc(F)cc3)[nH]2)CC1.Cl.Cl | 15 | > 20000 | – | 4910 | 5.31 | – | – | –
CN1C2CCC1CC(c1cc(-c3ccncc3)c(-c3ccc(F)cc3)[nH]1)C2.Cl.Cl (stereo not given) | -9 | 350 | 490 | 132 | 7.09 | 670 | – | –
C[C@H]1CN(C)CC[C@H]1c1cc(-c2ccncc2)c(-c2ccc(F)cc2)[nH]1.Cl.Cl (racemic) | 35 | – | 190 | 10 | 7.89 | 660 | 30 | –
C[C@@H]1CN(C)CC[C@H]1c1cc(-c2ccncc2)c(-c2ccc(F)cc2)[nH]1.Cl.Cl (racemic) | 9 | 30 | – | 27 | 7.64 | 800 | – | 280
CN1CCC(c2cc(-c3ccncc3CO)c(-c3ccc(F)cc3)[nH]2)CC1.Cl.Cl | 1 | 481 | 2400 | 1520 | 5.82 | 6230 | – | –
Cc1cnccc1-c1cc(C2CCN(C)CC2)[nH]c1-c1ccc(F)cc1.Cl.Cl | 12 | 1360 | 590 | 208 | 6.68 | 1130 | – | –
C=Cc1c(C2CCN(C)CC2)[nH]c(-c2ccc(F)cc2)c1-c1ccncc1.CC(=O)O | -1 | 1080 | 410 | 246 | 6.61 | 1170 | – | –
CC(=O)O.CC(O)c1c(C2CCN(C)CC2)[nH]c(-c2ccc(F)cc2)c1-c1ccncc1 (stereo not given) | 15 | 4260 | – | 1430 | 5.84 | 3750 | – | –
CN1CCC(C)(c2cc(-c3ccncc3)c(-c3ccc(F)cc3)[nH]2)CC1.Cl.Cl | 35 | 550 | 500 | 50 | 7.09 | 1070 | – | –
CC(O)c1cc(-c2cc(C3CCN(C)CC3)[nH]c2-c2ccc(F)cc2)ccn1.Cl.Cl (stereo not given) | 0.5 | 3350 | > 10000 | 10500 | 4.98 | 8320 | – | –
CN1CCC(c2cc(-c3ccncc3)c(-c3ccc(F)cc3)n2C)CC1.Cl.Cl | 4 | 710 | 2300 | 112 | 6.95 | 690 | – | –
CN1CCC(c2cc(-c3ccncc3)c(-c3ccc(F)cc3)[nH]2)CC1.Cl | 6 | 230 | 270 | 31 | 7.61 | 1020 | – | –
